# Test results published in patent publication US5616615A, “Enaminone esters” (priority 1995, dated 1997).
# Where two headings read alike, the source gives them in different places.
# How the values were obtained:
# [1] = tested on: Subcutaneous Pentylenetetrazol seizure; assay: sc Met subcutaneous pentylenetetrazol (Metrazol) seizure test, mice; assay type: in vivo; conditions: Mus musculus, sc, read-out: scMet, animals protected/tested (converted)
# seizures = assay: Anticonvulsant evaluation (ASP phase I / overall); assay type: in vivo, mice; conditions: Mus musculus, ip; Phase I; read-out: ASP Classification
# Method in brief: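 Male Carworth Farms #1 mice; maximal electroshock seizures elicited by 60-cycle AC, 50 mA, 0.2 s via corneal electrodes after a drop of 0.9% saline in the eye. Animals observed for 30 minutes.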
# in vivo [2] = conditions: rat, po
# Text: (§1) This oral screen is designated as phase VI.
# [3] = tested on: Maximal electroshock seizures; assay: MES maximal electroshock seizure test, mice ip; assay type: in vivo; set-up: TPE (time of peak effect), activity: unit not given here; conditions: ip; for responders at 100 mg/kg / responders at 300 mg/kg: Mus musculus; for responders at 100 mg/kg: read-out: MES, animals protected/tested (converted); for responders at 300 mg/kg: read-out: MES, animals protected/tested; for TPE (time of peak effect), activity: Phase II
# Description: Three tests were performed:
# 1. MES--Electroshock Seizure Test
# (§2) Maximal electroshock seizures are elicited with a 60-cycle alternating current of 50 mA intensity (5-7 times that necessary to elicit minimal electroshock seizures) delivered via corneal electrodes for 0.2 seconds. A drop of 0.9% saline is instilled in the eye prior to application of the electrodes in order to […].
# [4] = tested on: Maximal electroshock seizures; assay: Phase VI oral MES test, rats; assay type: in vivo; conditions: oral; for responders at 50 mg/kg: Rattus norvegicus, read-out: MES, animals protected/tested (converted); for ED50: Phase VI, rat
# Text: as §2, §1
# in vivo [5] = conditions: rat, ip
# Description: (§3) The rotorod test is used to elevate neurotoxicity. The animal is placed on a 1 inch diameter knurled plastic rod rotating at 6 rpm. […] Neurologic toxicity is defined as the failure of the animal to remain on the rod for 1 minute and the results are expressed as the number of animals protected/the number of animals tested.
# (§4) The toxicity evaluation for the commercial agents as previously indicated was based on the onset of ataxia.
# electroshock seizures = assay: MES maximal electroshock test, rats ip; assay type: in vivo
# Text: as §2
# in vivo [6] = conditions: mouse, in vivo, ip
# Description: The first phase of the ADD Program involved performing tests on male Carworth Farms #1 mice. […] Three tests were performed:
# In the second phase of the ADD program protocol, estimates of anticonvulsant activity and neurotoxicity are quantified. The median effective dose (ED50) in the MES, sc Met, and rotorod test is determined. In the case of a compound with apparent activity in only one anticonvulsant test, testing is carried out in the other up to, and in some cases beyond, doses which produce neurological deficit. Compounds which fail to produce minimal neurological deficit are tested whenever possible to doses ten times their lowest anticonvulsant ED50. […] The rotorod ED50 is determined at the time of the peak neurologic deficit.
# Corneal Kindled rats = tested on: Corneal Kindled rats; set-up: ED50 (reduction from Stage 5 to Stage 4): unit not given beside the values; conditions: cited from earlier work; for ED50 (reduction from Stage 5 to Stage 4): data provided by the ADD Program
# Description for Neurotoxicity, rats ip: as §3, §4
smiles,measurement,setting,value
COC(=O)C1C(=O)C=C(Nc2ccc(Br)cc2)CC1C (centres unmarked) [Compound 113],responders at 100 mg/kg,"[1]; 0.5 h, 30 min",0%
same,responders at 300 mg/kg,"[1]; 0.5 h, 30 min",40%
same,responders at 100 mg/kg,"[1]; 4 h, 4 h",0%
same,responders at 300 mg/kg,"[1]; 4 h, 4 h",0%
same,minimal effective dose,seizures,< 100 mg/kg
same,"Tox, animals exhibiting neurotoxicity/tested","Neurotoxicity, rats ip; 100 mg/kg, 2.00 h (Table VIII)",0/8
same,"Tox, animals exhibiting neurotoxicity/tested","Neurotoxicity, rats ip; 180 mg/kg, 2.00 h (Table VII)",2/4
same,"Tox, animals exhibiting neurotoxicity/tested","Neurotoxicity, rats ip; 180 mg/kg, 2.00 h (Table VIII)",2/8
same,"Tox, animals exhibiting neurotoxicity/tested","Neurotoxicity, rats ip; 180 mg/kg, 4.00 h",1/8
same,"Tox, animals exhibiting neurotoxicity/tested","Neurotoxicity, rats ip; 220 mg/kg, 0.25 h",0/8
same,"Tox, animals exhibiting neurotoxicity/tested","Neurotoxicity, rats ip; 220 mg/kg, 0.50 h",0/8
same,"Tox, animals exhibiting neurotoxicity/tested","Neurotoxicity, rats ip; 220 mg/kg, 1.00 h",1/8
same,"Tox, animals exhibiting neurotoxicity/tested","Neurotoxicity, rats ip; 220 mg/kg, 2.00 h",4/8
same,"Tox, animals exhibiting neurotoxicity/tested","Neurotoxicity, rats ip; 220 mg/kg, 2.00 h (Table VIII)",4/8
same,"Tox, animals exhibiting neurotoxicity/tested","Neurotoxicity, rats ip; 220 mg/kg, 6.00 h",0/8
same,"Tox, animals exhibiting neurotoxicity/tested","Neurotoxicity, rats ip; 220 mg/kg, 24.00 h",0/8
same,"Tox, animals exhibiting neurotoxicity/tested","Neurotoxicity, rats ip; 440 mg/kg, 2.00 h",6/8
same,"Tox, animals toxic/tested",in vivo [2]; 50 mg/kg,0/4
same,responders at 100 mg/kg,"[3]; 0.5 h, 30 min",100%
same,responders at 300 mg/kg,"[3]; 0.5 h, 30 min",100%
same,responders at 100 mg/kg,"[3]; 4 h, 4 h",100%
same,responders at 300 mg/kg,"[3]; 4 h, 4 h",100%
same,responders at 50 mg/kg,"[4]; 0.5 h, 0.50 h",100%
same,responders at 50 mg/kg,[4]; 0.25 h,75%
same,responders at 50 mg/kg,[4]; 1.00 h,100%
same,responders at 50 mg/kg,[4]; 2.00 h,100%
same,responders at 50 mg/kg,[4]; 4.00 h,100%
same,TD50 at 2 h,in vivo [5],270 mg/kg
same,selectivity ratio,in vivo [5],67.4
same,"MES, animals protected/tested","electroshock seizures; 1.2 mg/kg, 0.25 h",0/8
same,"MES, animals protected/tested","electroshock seizures; 3.6 mg/kg, 0.25 h",5/8
same,"MES, animals protected/tested","electroshock seizures; 4.5 mg/kg, 0.25 h",3/8
same,"MES, animals protected/tested","electroshock seizures; 4.8 mg/kg, 0.25 h",3/4
same,"MES, animals protected/tested","electroshock seizures; 4.8 mg/kg, 0.50 h",3/4
same,"MES, animals protected/tested","electroshock seizures; 4.8 mg/kg, 1.00 h",2/4
same,"MES, animals protected/tested","electroshock seizures; 6.0 mg/kg, 0.25 h",3/4
same,"MES, animals protected/tested","electroshock seizures; 6.0 mg/kg, 0.50 h",2/4
same,"MES, animals protected/tested","electroshock seizures; 6.0 mg/kg, 1.00 h",3/4
same,"MES, animals protected/tested","electroshock seizures; 6.0 mg/kg, 2.00 h",0/4
same,"MES, animals protected/tested","electroshock seizures; 7.0 mg/kg, 0.25 h",7/8
same,ED50,"electroshock seizures; Rattus norvegicus, ip, 0.25 h",4 mg/kg
"O=C1NC(=O)C(c2ccccc2)(c2ccccc2)N1 [phenytoin, reference compound]","TPE (time of peak effect), toxicity",in vivo [6],2
same,TD50,in vivo [2],> 3000 mg/kg
same,"TPE (time of peak effect), activity",[3],2
same,ED50,[4],29.8 mg/kg
same,ED50 (reduction from Stage 5 to Stage 4),"Corneal Kindled rats; ip, 0.5 h",48.25
same,activity in corneal kindling,Corneal Kindled rats; oral route,inactive
same,ED50 (reduction from Stage 5 to Stage 4),"Corneal Kindled rats; po, 0.5 h",> 100
"NC(=O)N1c2ccccc2C=Cc2ccccc21 [carbamazepine, reference compound]","TPE (time of peak effect), toxicity",in vivo [6],0.5
same,"TPE (time of peak effect), activity",[3],0.5
same,ED50,[4],8.5 mg/kg
same,"ED50, corneal kindling",Corneal Kindled rats; comparative commercial product,28.90 mg/kg
same,ED50 (reduction from Stage 5 to Stage 4),"Corneal Kindled rats; po, 1 h, 30 min",28.90
